The values that follow come from patent US8084455B2, “Use of a kinase inhibitor for the treatment of particular resistant tumors” (Nerviano Medical Sciences S.r.l., priority 2006, dated 2011).

Changes are numbered by the printed parent chain. Where two headings read alike, the source gives them in different places.

For assay [1], the system named is Imatinib-resistant ABL mutants. The settings on record: literature; cited from earlier work.
Assay [2] addresses T1, Wild-type ABL 0P (unphosphorylated ABL kinase domain) (Homo sapiens, UniProt P00519).
T1 sequence (P00519 229-512): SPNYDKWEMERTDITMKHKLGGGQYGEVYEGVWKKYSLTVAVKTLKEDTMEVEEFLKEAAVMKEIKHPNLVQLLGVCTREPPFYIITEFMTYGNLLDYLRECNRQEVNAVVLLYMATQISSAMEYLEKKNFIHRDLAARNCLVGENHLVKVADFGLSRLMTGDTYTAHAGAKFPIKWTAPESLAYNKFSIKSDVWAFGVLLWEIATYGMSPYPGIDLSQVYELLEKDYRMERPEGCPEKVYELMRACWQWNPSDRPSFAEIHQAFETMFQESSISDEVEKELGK
The settings on record: Table 1; displacement of probe 3.1 at 0.15 μM, 10 nM enzyme, average of three experiments.
Procedure: (§1) In all experiments, the fluorescence signal was measured using a Fusion α-FP HT plate reader (Packard). Data analysis was performed using the Dynafit software.
(§2) In particular, titration data were fitted to the following equilibria: Enzyme+probe<==>Complex Enzyme-probe, while displacement data were fitted to the following equilibria: Enzyme+probe<==>Complex Enzyme-probe, Enzyme+Compound<==>Complex Enzyme-Compound, whereby binding of probe and compound on the enzyme are mutually exclusive (pure competitive mechanism).
(§3) The mixture of enzyme and probe was added to the previously diluted compounds. […] In agreement, affinity binding constants (KD) were determined by fitting with a pure competitive mechanism. KD values, are the average of three independent experiments.
(§4) The displacement assay was performed as described before, with 3 μM as the highest inhibitor concentration tested with dilution steps 1:1.5.

Assay [3] addresses T2, T315I ABL mutant kinase domain (Homo sapiens, UniProt P00519, T315I).
T2 sequence (P00519 229-512 T315I): T1 sequence (P00519 229-512) with T87I
The settings on record: Table 1; displacement of probe 3.1 at 0.42 μM, 10 nM enzyme, average of three experiments.

Assay [4] addresses T3, Wild-type ABL kinase domain (Homo sapiens, UniProt P00519).
T3 sequence (P00519 229-512): T1 sequence (P00519 229-512)
The settings on record: Table 4; displacement of probe 3.2 at 3.3 μM.
Procedure: as §2, §3
(§5) The applied conditions were the same except for the saturating probe concentration (2, 3.3 and 0.2 μM for ABL wild-type unphosphorylated (0P), wild-type and T315I, respectively) and the probe final concentration (2, 3.3 and 0.2 μM for ABL wild-type unphosphorylated (0P), wild-type and T315I, respectively).
(§6) The displacement assay was performed as described before, with 3 μM as the highest inhibitor concentration tested.

For assay [5], the target named is T2, T315I ABL mutant kinase domain. The settings on record: Table 4; displacement of probe 3.2 at 0.2 μM.
Assay [6] addresses T1, Wild-type ABL 0P (unphosphorylated ABL kinase domain). The settings on record: Table 4; displacement of probe 3.2 at 2 μM.
Procedure: as §2, §3, §5, §6
Assay [7] addresses T3, Wild-type ABL kinase domain. The settings on record: Table 1; displacement of probe 3.1 at 0.12 μM, 10 nM enzyme, average of three experiments.
Procedure: as §1, §2, §3, §4

Broadly, the Kd is the equilibrium constant for the complex coming apart.

With `Cc1cn(-c2cc(NC(=O)c3ccc(C)c(Nc4nccc(-c5cccnc5)n4)c3)cc(C(F)(F)F)c2)cn1` [AMN107], the “activity against Imatinib-resistant ABL mutants” value in assay [1] is “active against the majority”.
As to `Nc1ncnc2c1ncn2[C@@H]1O[C@H](COP(=O)(O)OP(=O)(O)OP(O)(O)=S)[C@@H](O)[C@H]1O` [ATPγS], the dissociation constant Kd in assay [2] is 9.5 ± 3.4 µM; in assay [3], 2 ± 0.21 µM; in assay [4] it was 4.8 ± 1 µM; in assay [5], 2.61 ± 0.9 µM; in assay [6], 6.6 ± 1.6 µM; in assay [7], 9 ± 1.9 µM.
